Columns and labels:
[1] = healthy young or old adults; cited from earlier work
[2] = after HMB is fed; cited from earlier work
[3] = HMB kinetics before and after two weeks of BC30 probiotic supplementation (Example 2)

Compound | Side effects [1] | Loss of HMB to urine [2] | Probiotic-induced increase in peak plasma HMB levels, CaHMB compared with HMB-FA [3]
CC(C)(O)CC(=O)O [HMB, β-hydroxy-β-methylbutyric acid] | no side effects | 20-50% | 
Calcium β-Hydroxy-β-Methylbutyrate [CaHMB] |  |  | larger

From patent US12370159B2, “Compositions and methods of use of beta-hydroxy-beta-methylbutyrate (HMB) and probiotics” (priority 2016, dated 2025)
